Legend:
[1] = Binding affinity towards Opioid receptor delta 1
[2] = Binding affinity towards Opioid receptor delta 1; remark: listed apart in the source

Row | SMILES | Ki [1] | Ki [2]
1 | CN1CCC2(c3cccc(O)c3)CCCC1[C@@H]2O (stereo partly drawn) | > 500 nM | 
2 | CN1CCC2(c3cccc(O)c3)CCCC1C2 (stereo not drawn) |  | > 500 nM
3 | CN1CCC2(c3cccc(O)c3)CCCC1[C@H]2O (stereo partly drawn) | 420 nM | 

From BindingDB's records for doi:10.1021/jm00087a004 (Harvard Medical School, 1992)
